Test system: subcutaneous prostate cancer model (PC3)
Assay: Tumour specific uptake of Evans Blue vs. Enhancement MI
Format: in vivo, mice
Details: ACT, Enhancement 0.5 MHz MI 0.2, compared to MI=0 (no ultrasound); 30 min after treatment
Experimental: To investigate the effect of MI variance of the US Enhancement field, tumour specific uptake of Evans Blue (EB, fluorescent dye) has been investigated in a subcutaneous prostate cancer model (PC3) in mice. Five groups with Enhancement insonation MIs of 0, 0.1, 0.2, 0.3 and 0.4 were investigated (N=3 animals per group). […] 30 min after treatment, the tumours were excised and the amount of EB was measured by spectrophotometry at 620 nm.

SMILES: Cc1cc(-c2ccc(/N=N/c3ccc4c(S(=O)(=O)O)cc(S(=O)(=O)O)c(N)c4c3O)c(C)c2)ccc1/N=N/c1ccc2c(S(=O)(=O)O)cc(S(=O)(=O)O)c(N)c2c1O [Evans Blue]
- increase in tumour specific uptake: ~60%
